Assay results taken from the NIST ThermoML archive (doi:10.1016/j.tca.2013.09.032).
Numbers after ± are expanded uncertainties.

Experiment: molar heat capacity at constant pressure
Details: 101.33 kPa, Crystal, Vacuum adiabatic calorimetry

Cc1cc2nc3c(=O)[nH]c(=O)nc-3n(C[C@H](O)[C@H](O)[C@H](O)CO)c2cc1C [riboflavin]
Details	molar heat capacity at constant pressure [J/K/mol]
1 K	0.0523 ± 0.011
2 K	0.209 ± 0.013
3 K	0.47 ± 0.016
4 K	0.836 ± 0.02
5 K	1.31 ± 0.024
6 K	1.88 ± 0.03
6.75 K	2.55 ± 0.03
7 K	2.65 ± 0.035
7.32 K	2.83 ± 0.04
8 K	3.25 ± 0.039
8.41 K	3.45 ± 0.04
8.94 K	4.08 ± 0.05
9 K	4.08 ± 0.047
9.34 K	4.48 ± 0.05
9.68 K	4.81 ± 0.05
10 K	5.1 ± 0.054
10.15 K	5.25 ± 0.05
10.36 K	5.42 ± 0.06
10.98 K	6.23 ± 0.06
11.56 K	7.05 ± 0.07
11.98 K	7.68 ± 0.07
13.16 K	9.25 ± 0.08
15 K	12 ± 0.1
15.03 K	12.22 ± 0.1
16.92 K	15.24 ± 0.11
18.77 K	18.25 ± 0.12
20 K	20.35 ± 0.13
20.65 K	21.38 ± 0.13
22.79 K	25.35 ± 0.14
24.95 K	29.29 ± 0.15
25 K	29.5 ± 0.15
27.13 K	33.81 ± 0.15
29.37 K	38.36 ± 0.15
30 K	39.49 ± 0.13
31.61 K	42.49 ± 0.13
33.91 K	47.31 ± 0.14
35 K	49.35 ± 0.14
36.25 K	51.78 ± 0.15
38.52 K	56.45 ± 0.16
40 K	59.26 ± 0.16
40.96 K	60.98 ± 0.17
43.38 K	65.91 ± 0.18
45 K	68.91 ± 0.18
45.72 K	70.28 ± 0.18
48.12 K	74.84 ± 0.19
50 K	78.34 ± 0.2
50.55 K	79.52 ± 0.2
52.99 K	83.98 ± 0.21
55.45 K	88.71 ± 0.22
57.93 K	93.42 ± 0.23
60 K	97.31 ± 0.24
60.48 K	98.18 ± 0.24
62.91 K	102.6 ± 0.3
65.4 K	106.9 ± 0.3
67.89 K	110.9 ± 0.3
70 K	114.4 ± 0.3
70.37 K	115.1 ± 0.3
72.85 K	119.2 ± 0.3
75.32 K	123.3 ± 0.3
77.79 K	128.2 ± 0.3
80 K	132 ± 0.3
80.34 K	132.4 ± 0.3
82.75 K	137.1 ± 0.3
83.48 K	138.3 ± 0.3
85.22 K	141.4 ± 0.3
86.72 K	144.2 ± 0.3
88.86 K	147.9 ± 0.3
89.48 K	148.9 ± 0.3
90 K	149.6 ± 0.4
92.71 K	153.8 ± 0.4
95.7 K	158.4 ± 0.4
98.7 K	162.9 ± 0.4
100 K	165.2 ± 0.4
101.67 K	167.8 ± 0.4
104.65 K	172.4 ± 0.4
107.64 K	177.1 ± 0.4
110 K	180.4 ± 0.4
110.63 K	181.6 ± 0.4
113.62 K	185.8 ± 0.4
116.63 K	190.1 ± 0.4
119.63 K	194.3 ± 0.4
120 K	195 ± 0.4
122.64 K	198.5 ± 0.4
125.66 K	202.7 ± 0.4
128.69 K	207.3 ± 0.4
130 K	209.2 ± 0.4
131.7 K	211.6 ± 0.4
134.72 K	215.9 ± 0.4
137.75 K	220.3 ± 0.4
140 K	223.3 ± 0.4
140.77 K	224.6 ± 0.4
143.8 K	229 ± 0.4
146.83 K	233 ± 0.4
149.86 K	237.2 ± 0.4
150 K	237.5 ± 0.4
152.9 K	241.7 ± 0.4
155.94 K	246 ± 0.5
158.98 K	250.1 ± 0.5
160 K	251.7 ± 0.5
162.02 K	254.2 ± 0.5
165.06 K	258.6 ± 0.5
168.1 K	263 ± 0.5
170 K	265.7 ± 0.5
171.14 K	267.3 ± 0.5
174.19 K	271.6 ± 0.5
177.26 K	276 ± 0.5
180 K	279.4 ± 0.5
180.3 K	279.9 ± 0.5
183.34 K	283.9 ± 0.5
186.38 K	288.1 ± 0.5
189.42 K	291.9 ± 0.5
190 K	293 ± 0.5
192.46 K	296.2 ± 0.5
195.5 K	300.5 ± 0.5
198.54 K	305 ± 0.5
200 K	306.7 ± 0.5
201.58 K	308.7 ± 0.5
204.61 K	313 ± 0.5
207.64 K	317.5 ± 0.5
210 K	320.5 ± 0.5
210.68 K	321.4 ± 0.5
213.72 K	325.8 ± 0.5
216.77 K	330 ± 0.5
219.81 K	334 ± 0.5
220 K	334.7 ± 0.5
222.86 K	338.3 ± 0.5
225.93 K	342.3 ± 0.5
228.98 K	346.6 ± 0.6
230 K	348.2 ± 0.6
232.02 K	350.4 ± 0.6
235.06 K	355 ± 0.6
238.11 K	359.4 ± 0.6
240 K	361.5 ± 0.6
241.15 K	363.5 ± 0.6
244.2 K	367.7 ± 0.6
247.25 K	371.5 ± 0.6
250 K	375.1 ± 0.6
250.29 K	375.6 ± 0.6
253.34 K	379.8 ± 0.6
256.38 K	383.9 ± 0.6
259.42 K	388.4 ± 0.6
260 K	389.1 ± 0.6
262.46 K	392.5 ± 0.6
265.5 K	396.6 ± 0.6
268.54 K	400.6 ± 0.6
270 K	403 ± 0.6
271.58 K	404.8 ± 0.6
273.15 K	407.4 ± 0.6
274.65 K	409.2 ± 0.6
277.69 K	413.5 ± 0.6
280 K	416.6 ± 0.6
280.72 K	417.4 ± 0.6
283.75 K	421.5 ± 0.6
286.78 K	425.5 ± 0.6
289.8 K	429.8 ± 0.6
290 K	429.9 ± 0.6
292.82 K	434 ± 0.6
295.84 K	438.2 ± 0.6
298.15 K	441.1 ± 0.6
298.86 K	442.2 ± 0.6
302.37 K	447.3 ± 0.7
306.36 K	453.1 ± 0.7
310 K	458.6 ± 0.7
310.36 K	459.1 ± 0.7
314.34 K	464.5 ± 0.7
318.32 K	470 ± 0.7
320 K	472.1 ± 0.7
322 K	474.1 ± 0.7
322.29 K	474.7 ± 0.7
